Here are results for four compounds from US6391280B1, “J chain polypeptide targeting molecule linked to an imaging agent” (Epicyte Pharmaceutical, Inc., priority 1997, dated 2002).

Each structure is given as a SMILES string. Marks after values point to notes of the source that are not given here.

This data set can be described thus: Molar Relaxivities 1/T1 of Paramagnetic Compounds. Type of data set: physicochemical. The conditions noted are these: in water at 10.7 MHz, 37° C. (values marked *).
For `[Cl][Mn][Cl]` [MnCl2], the “Relaxation rate, molar relaxivity 1/T1” value is reported as 9.32* (mMs)^−1.

With `O=C([O-])CN(CCN(CC(=O)[O-])CC(=O)O)CCN(CC(=O)[O-])CC(=O)O.[Gd+3]` [GDDTP A], the “Relaxation rate, molar relaxivity 1/T1” value is 5.05* (mMs)^−1. Then `[Cl][Gd]([Cl])[Cl]` [GdCl], with 14.67* (mMs)^−1; and `O=S(=O)([O-])c1ccc(-c2c3nc(c(-c4ccc(S(=O)(=O)[O-])cc4)c4ccc([n-]4)c(-c4ccc(S(=O)(=O)[O-])cc4)c4ccc([n-]4)c(-c4ccc(S(=O)(=O)[O-])cc4)c4nc2C=C4)C=C3)cc1.[Mn+3]` [MnTPPS4], with 10.39* (mMs)^−1.
